This note sets out measurements from ChEMBL document CHEMBL4406865, “Design, synthesis and biological evaluation of novel semicarbazone-selenochroman-4-ones hybrids as potent antifungal agents” (2019).

Values after ≈ are worked out from the molar mass of the structure shown.

What all share (type): functional
Assay [1] relates to Candida albicans. Briefly: Antifungal activity against fluconazole-resistant Candida albicans isolate 17 incubated for 24 hrs by CLSI protocol based microbroth dilution method. The conditions noted are these: isolate 17, 24 h. (Dilution methods test growth across graded concentrations, often in twofold steps.)
Assay [2] concerns Aspergillus fumigatus. Briefly: Antifungal activity against Aspergillus fumigatus CGMCC 3.7795 measured at 72 hrs by CLSI protocol based microbroth dilution method. The settings on record: CGMCC 3.7795, 72 h.
Assay [3] deals with Candida albicans. Briefly: Antifungal activity against fluconazole-resistant Candida albicans isolate 103 incubated for 24 hrs by CLSI protocol based microbroth dilution method. The settings on record: isolate 103, 24 h.
The subject of assay [4] is Candida albicans. The experiment in a line: Antifungal activity against fluconazole-resistant Candida albicans CaR incubated for 24 hrs by CLSI protocol based microbroth dilution method.
The subject of assay [5] is Candida albicans. Briefly: Antifungal activity against Candida albicans CPCC400616 measured at 24 hrs by CLSI protocol based microbroth dilution method. The settings on record: CPCC400616, 24 h.
Assay [6] has as its system Cryptococcus neoformans. Briefly: Antifungal activity against Cryptococcus neoformans CGMCC2.3161 measured at 72 hrs by CLSI protocol based microbroth dilution method. The settings on record: CGMCC2.3161, 72 h.
Assay [7] concerns Candida albicans. Briefly: Antifungal activity against Candida albicans SC5314 incubated for 24 hrs by CLSI protocol based microbroth dilution method. The conditions noted are these: SC5314, 24 h.
Assay [8] concerns Candida albicans. Briefly: Antifungal activity against fluconazole-resistant Candida albicans isolate 100 incubated for 24 hrs by CLSI protocol based microbroth dilution method. The conditions noted are these: isolate 100, 24 h.
Assay [9] has as its system [Candida] zeylanoides. The experiment in a line: Antifungal activity against Candida zeylanoides CGMCC2.3739 measured at 24 hrs by CLSI protocol based microbroth dilution method. The conditions noted are these: Dujonia zeylanoides, CGMCC2.3739, 24 h.

With `NNC(=S)N/N=C1\CC[Se]c2ccc(F)cc21`, the MIC90 (usually the lowest concentration that inhibits either 90% of growth or 90% of the strains tested, depending on the study) is 8 µg/mL (≈ 25.2 µM) in [1]; over 128 µg/mL in assay [2]; 2 µg/mL (≈ 6.3 µM) in [3]; 8 µg/mL (≈ 25.2 µM) in assay [4]; 2 µg/mL (≈ 6.3 µM) in assay [5]; 4 µg/mL (≈ 12.6 µM) in [6]. Besides, the MIC90 in assay [7] was found to be 4 µg/mL (≈ 12.6 µM); in assay [8] it was 4 µg/mL (≈ 12.6 µM); in [9] it was 64 µg/mL (≈ 202 µM).
Consider `NNC(=S)N/N=C1\CC[Se]c2ccccc21`, for which the MIC90 in assay [1] is 64 µg/mL (≈ 214 µM); in assay [2], over 128 µg/mL; in assay [3], over 128 µg/mL; in [4], over 128 µg/mL; in assay [5] it was 8 µg/mL (≈ 26.7 µM); in assay [6], 0.5 µg/mL (≈ 1.67 µM). Besides, the MIC90 was 16 µg/mL (≈ 53.5 µM) in [7], over 128 µg/mL in [8] and 1 µg/mL (≈ 3.34 µM) in assay [9].
For `OC(Cn1cncn1)(Cn1cncn1)c1ccc(F)cc1F` [FLUCONAZOLE], the MIC90 in assay [1] was 128 µg/mL (≈ 418 µM); in assay [2] it was over 128 µg/mL; in [3], over 128 µg/mL; in assay [4], over 128 µg/mL; in assay [5], 2 µg/mL (≈ 6.53 µM); in assay [6], 1 µg/mL (≈ 3.27 µM). Also, the MIC90 was determined as 1 µg/mL (≈ 3.27 µM) in assay [7], 128 µg/mL (≈ 418 µM) in assay [8] and 2 µg/mL (≈ 6.53 µM) in assay [9].
